Source: patent US9359406B2, “Vaccine for a therapeutic or a prophylactic treatment of myasthenia gravis” (CuraVac Inc., priority 2006, dated 2016)
No end group written: not given here.

Columns and labels:
pathogenic antibodies = test: Pathogenic antibodies level in rats given B-peptide and T-peptide alone or together; assay type: in vivo; conditions: result in words
Protocol: As previously described, the peptide RhCA 67-16 also called herein B-peptide and the peptide RhCA 611-001 also referred herein T-peptide were tested alone on rats.

[1] = system: Experimental Autoimmune Myasthenia Gravis (EAMG); conditions: cited from earlier work
[2] = system: experimental autoimmune myasthenia gravis (EAMG); test: Example 3: EAMG induced with purified Torpedo AChR in Lewis rats vaccinated with T-peptide, B-peptide or both; assay type: in vivo; conditions: immunized three times
Description: To evaluate whether vaccination with T-peptide together with B-peptide with an hydrocarbon group causes a different effect on experimental autoimmune myasthenia gravis (EAMG) than either B with an hydrocarbon group and T-peptide alone and separately, Lewis rats were immunized three times with keyhole limpet hemacyanin (KLH) or T-peptide or B-peptide with an hydrocarbon group coupled to KLH either alone or in combination. EAMG was then induced with purified Torpedo AChR and disease was monitored.

Substance | pathogenic antibodies level (pathogenic antibodies) | incidence of the disease in vaccinated animals ([1]; peptide conjugated to KLH, controls 90%) [%] | clinical severity scoring in animals with disease, average ([1]; peptide conjugated to KLH, positive controls 3.5) | Average Severity [2] | EAMG Incidence (%) [2] [%] | Mortality (%) [2] [%] | Severity 0, number of rats [2] | Severity 1, number of rats [2] | Severity 2, number of rats [2] | Severity 4, number of rats [2] | clinical outcome after immunization ([1]; Lewis rats, result in words)
NH2-Phe-Asn-Ser-Thr-Ile-Ile-Gly-Trp-Ile-Pro-Ala-Lys-Pro-His-Ile-Asn (H-FNSTIIGWIPAKPHIN; also: Trp8 carries at least one 2,4,6-trimethoxybenzyl group) [RhCA 67-16] | significant decrease | 25 | 1.0 | 1.33 ± 0.55 | 55.56 | 22.22 | 4 | 2 | 1 | 2 | –
NH2-Tyr-Phe-Ser-Arg-Ile-Ile-Gln-Lys-Gln-Phe-Gly-His-Val-Asn-Asn-Gly-Lys (H-YFSRIIQKQFGHVNNGK) [RhCA 611-001, peptide complementary to residues 100-116 of the α-chain of the AChR] | significant decrease | – | – | 1.22 ± 0.55 | 55.56 | 22.22 | 4 | 3 | – | 2 | marked clinical improvement, lowered mortality and preservation of AChR levels on muscles
